This passage reports EC50, Kd and IC50 results from ChEMBL document CHEMBL4825694 (Eur J Med Chem, 2021).

For assay [1], the target named is T1, Peroxisome proliferator-activated receptor gamma (Homo sapiens, UniProt P37231).
T1 sequence (P37231 whole entry): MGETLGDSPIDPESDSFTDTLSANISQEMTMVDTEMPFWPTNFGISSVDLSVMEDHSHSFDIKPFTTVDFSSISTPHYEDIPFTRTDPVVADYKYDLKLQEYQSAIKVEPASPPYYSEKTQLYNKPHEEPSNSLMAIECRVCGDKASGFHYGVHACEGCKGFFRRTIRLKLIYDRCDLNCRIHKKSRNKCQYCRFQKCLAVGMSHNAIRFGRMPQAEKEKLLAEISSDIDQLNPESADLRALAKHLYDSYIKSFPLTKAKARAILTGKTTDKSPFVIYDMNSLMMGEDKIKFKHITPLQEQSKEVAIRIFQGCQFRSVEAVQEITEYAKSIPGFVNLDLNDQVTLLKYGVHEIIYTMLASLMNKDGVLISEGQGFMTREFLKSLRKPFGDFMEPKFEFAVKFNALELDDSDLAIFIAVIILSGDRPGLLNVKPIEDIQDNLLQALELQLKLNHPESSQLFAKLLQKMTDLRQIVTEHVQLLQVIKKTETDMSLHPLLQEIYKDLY
Briefly: Partial agonist activity at GAL4 DBD-fused PPARgamma LBD (unknown origin) expressed in pG5 luc and pBIND transfected HEK293T cells assessed as transcriptional activation incubated for 12 hrs by fluorescence based luciferase assay.

Assay [2] addresses T1, Peroxisome proliferator-activated receptor gamma. Briefly: Binding affinity to GAL4-DBD-fused PPARgamma ligand binding domain (unknown origin) expressed in HEK293T cells by spectra-fluorophotometry analysis.
Assay [3] concerns the target T2, Prostaglandin G/H synthase 2 (Homo sapiens, UniProt P35354).
T2 sequence (P35354 whole entry): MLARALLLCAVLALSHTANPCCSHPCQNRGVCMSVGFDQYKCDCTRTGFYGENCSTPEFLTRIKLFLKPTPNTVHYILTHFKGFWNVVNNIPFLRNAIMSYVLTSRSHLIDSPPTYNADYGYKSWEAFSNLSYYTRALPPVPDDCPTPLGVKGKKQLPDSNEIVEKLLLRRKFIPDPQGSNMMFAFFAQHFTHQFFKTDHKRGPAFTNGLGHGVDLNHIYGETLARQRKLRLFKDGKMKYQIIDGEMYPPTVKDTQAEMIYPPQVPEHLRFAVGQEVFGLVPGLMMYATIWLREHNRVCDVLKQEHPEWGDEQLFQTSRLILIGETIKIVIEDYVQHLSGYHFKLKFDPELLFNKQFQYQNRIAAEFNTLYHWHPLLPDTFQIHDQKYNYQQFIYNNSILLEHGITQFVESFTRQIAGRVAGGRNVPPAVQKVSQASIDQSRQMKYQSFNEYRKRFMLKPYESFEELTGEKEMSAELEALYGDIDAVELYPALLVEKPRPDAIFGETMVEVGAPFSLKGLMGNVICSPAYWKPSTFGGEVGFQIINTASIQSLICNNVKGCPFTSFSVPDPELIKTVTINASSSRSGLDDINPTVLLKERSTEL

The structures appear in SMILES notation. pEC50, pIC50, pKd: −log10 of the molar value.

With `CC1=C(CC(=O)O)c2cc(F)ccc2/C1=C\c1ccc(F)cc1`, the pEC50 in assay [1] is 4.93. Also, the pKd in assay [2] is 5.18.
On the same counts, the results for `CC1=C(CC(=O)O)c2ccccc2/C1=C/c1cccc(C)c1` are < 4.30 and < 4.00.
On the same counts, the results for `CC1=C(CC(=O)O)c2cc(F)ccc2/C1=C\c1ccc(OCc2ccccc2)cc1` are < 4.30 and < 4.00.
On the same counts, the results for `COc1cccc(/C=C2/C(C)=C(CC(=O)O)c3cc(F)ccc32)c1` are 5.28 and 5.61.
In the case of `CC1=C(CC(=O)O)c2ccccc2/C1=C\c1cccc(C)c1`, the pEC50 in assay [1] was < 4.30. The pKd in assay [2] was < 4.00.
For `CC1=C(CC(=O)O)c2cc(F)ccc2/C1=C\c1ccc(C(C)C)cc1` the same measures were < 4.30 and < 4.00.
`CC1=C(CC(=O)O)c2cc(F)ccc2/C1=C\c1ccc([S+](C)[O-])cc1` (configuration not stated): the pEC50 in assay [1] was 4.64. For the same compound, the pKd in assay [2] is < 4.00.
For `CC1=C(CC(=O)O)c2cc(F)ccc2/C1=C\c1ccc(Oc2ccccc2)cc1` the same measures were < 4.30 and < 4.00.
`CC1=C(CC(=O)O)c2cc(F)ccc2/C1=C\c1cccc(OCc2ccccc2)c1` gave a pIC50 in assay [3] of 3.54.

What is called pEC50 is −log10 of the EC50, conventionally taken in molar units. Broadly, the pKd is the negative decadic logarithm of the Kd, by convention in mol/L. A low value points to a large Kd. Usually pIC50 stands for −log10 of the IC50, conventionally taken in molar units. A high value points to a small IC50.
